According to patent publication US7632816B2, “Treatment of Alzheimer amyloid deposition” (New York University, priority 2003, dated 2009):
Entries after “also recorded” stand apart in the source; their conditions may differ. Square brackets hold non-standard residues; d marks the D form. Peptide text beside a SMILES is read from it.

Columns and labels:
[1] = test system: APP^K670N/M671L/PS1^M146L double Tg mice; assay: Aβ deposition in APP/PS1 double transgenic mice, 6E10 and Thioflavin-S histology with stereology; format: in vivo; settings: for Aβ load lower compared to vehicle Tg controls: 1 mg i.p. three times per week, four weeks
Description: (§1) Initial testing of Aβ12-28P toxicity in vivo was performed on five wild type C57BL6 mice which received intraperitoneal (“i.p.”) injections of 1 mg of Aβ12-28P diluted in 0.5 mL of sterile PBS three times per week for four weeks. […] Signs of toxicity included change in body weight, physical appearance, measurable clinical signs, unprovoked behavior and response to external stimuli were not noticed. After one month, the animals were sacrificed and samples were taken from the brain, liver, gut, spleen, kidney and heart, for hematoxylin and eosin staining. […] The first administration of Aβ12-28P was begun at four months of age, at which time the APP^K670N/M671L/PS1^M146L mice already have significant numbers of Aβ lesions (Wengenack et al., “Quantitative Histological Analysis of Amyloid Deposition in Alzheimer's Double Transgenic Mouse Brain,” Neurosci. 101:939-944 (2000); McGowan et al., “Amyloid Phenotype Characterization of Transgenic Mice Overexpressing Both Mutant Amyloid Precursor Protein and Mutant Presenilin 1 Transgenes,” Neurobiol. Dis. 6:231-244 (1999), which are hereby incorporated by reference in their entirety). The treatment was continued for four weeks (1 mg i.p. three times per week). Control age-matched APP^K670N/M671L/PS1^M146L mice received injections with vehicle only. There were six Aβ12-28P treated and six vehicle treated APP^K670N/M671L/PS1^M146L mice in this study.
Animals were sacrificed a week after the last injection with an overdose of sodium pentobarbital (150 mg/kg i.p.) and transcardially perfused with 20 ml of heparinized 0.1M PBS followed by 4% buffered paraformaldehyde. The brain was dehydrated using increasing concentrations of sucrose in 0.1M PBS, pH 7.4 and sectioned using a freezing microtome (Leica SM2400) (Nussloch, Germany). Serial coronal sections (40 μm thick) were collected in 10 series. Each of the series contained a complete set of cross-sections along the rostro-caudal axis of the brain spaced by 400 μm. […] For Aβ immunohistochemistry, endogenous peroxidase activity was quenched in 0.3% H2O2 for 30 min and incubation with mAb 6E10 at 1:1000 dilution was followed by an anti-mouse IgG biotinylated secondary antibody (1:2000) and avidin-horseradish peroxidase complex (Vectastain MOM kit) (Vector Laboratories, Burlingame, Calif.). Sections were developed using 3,3′-diaminobenzidine kit with nickel ammonium sulfate (Vector Laboratories, Burlingame, Calif.).
Aβ deposition were quantified on one randomly selected section series which was stained with 6E10 mAb. Aβ deposits were measured in the brain cortex and in the hippocampus using a random, unbiased sampling scheme.

[2] = design: species or system mice; settings: mouse, in vivo
Description: Blood samples were collected at given time points. Serum was separated from plasma by centrifugation at 10,000×g for 10 minutes. The trichloroacetic (TCA) acid precipitation method was used to assess the amount of radiolabeled peptide present in the serum (Yi et al., “Amyloid β40/42 Clearance Across the Blood-brain Barrier Following Intra-ventricular Injections in Wild-type, apoE Knock-out and Human apoE3 or E4 Expressing Transgenic Mice,” J. Alz. Dis. 3:23-30 (2001); Mackic et al., “Transport Across the Blood-brain Barrier and Differential Cerebrovascular Sequestration of Circulating Alzheimer's Amyloid-β Peptide in Aged Rhesus Versus Aged Squirrel Monkeys,” Vascul. Pharmacol. 38:303-313 (2002); which are hereby incorporated by reference in their entirety). A 30% stock solution of bovine albumin (Sigma, St. Louis, Mo.) in PBS was added to serum samples to obtain a final albumin solution of 5%, which was thoroughly mixed. Serum samples were then precipitated with TCA (final concentration of TCA was 15%) and centrifugated at 25,000×g in a Beckmann TL-100 Ultracentrifuge. Radioactivity was assessed in the pellet fraction using a Beckman 4000 gamma counter. Serum level of ^125I-Aβ12-28P following intranasal peptide administration was assessed in another six wild type C57BL6J mice. Under ketamine/xylazine anesthesia 80 μg of radiolabeled peptide (in 100 μl of PBS) was administered into the nasal cavity. Ten 10 μl drops were instilled into both nostrils alternatively over five minutes. Serum samples were collected and radioactivity in TCA precipitated pellets was measured as described above. The obtained data was transformed into percentage values compared to serum radioactivity following intravenous injections at t=0 as 100%. The mean±standard deviation from all tested animals was plotted in FIG. 4 and analyzed by a one phase exponential decay nonlinear regression fit algorithm using GraphPad Prism v4.0.
At t=0, the serum level was equal to about 40% of the level achieved after administration of the same amount of peptide intravenously.

Aβ1-42 = Aβ1-42 toxicity in SK-N-SH cells with peptide added without apoE, MTT assay; format: cell-based, human
Description: All experiments were run in triplicate. The results from cell culture neurotoxicity studies were evaluated by one-way analysis of variance, followed by a Dunnett's test as a post hoc analysis.

[3] = In vivo toxicity test in wild type mice; settings: 1 mg i.p. three times per week for four weeks
Description: as §1

[4] = mouse

## CC(=O)N[C@@H](C(=O)N[C@H](Cc1c[nH]cn1)C(=O)N[C@H](Cc1c[nH]cn1)C(=O)N[C@H](CCC(N)=O)C(=O)N[C@H](CCCCN)C(=O)N[C@H](CC(C)C)C(=O)N1CCC[C@@H]1C(=O)N[C@H](Cc1ccccc1)C(=O)N[C@H](Cc1ccccc1)C(=O)N[C@H](C)C(=O)N[C@H](CCC(=O)O)C(=O)N[C@H](CC(=O)O)C(=O)N[C@@H](C(=O)NCC(=O)N[C@H](CO)C(=O)N[C@H](CC(N)=O)C(=O)N[C@H](CCCCN)C(N)=O)C(C)C)C(C)C [Aβ12-28P] (Ac-[dV][dH][dH][dQ][dK][dL][dP][dF][dF][dA][dE][dD][dV]G[dS][dN][dK]-NH2)
[1]; cortex, >500 μm^2 and <1000 μm^2, p<0.05
  reduction in the number of medium-size plaques: 53.5%
[1]; cortex, >1000 μm^2, non-significant
  reduction in the number of large plaques: 44%
[1]; cortex, cross-section area <500 μm^2, p<0.001
  reduction in the density of small plaques: 52.8%
[1]; cortex, p=0.0047
  Aβ load lower compared to vehicle Tg controls: 63.3%
[1]; four weeks of treatment
  density of fibrillar Aβ plaques on Thioflavin-S staining: reduction in the density of Aβ plaques was also seen
[1]; hippocampus, p<0.05
  reduction in the density of large plaques: 65.4%
  reduction in the density of medium-size plaques: 48.6%
  reduction in the density of small plaques: 37.6%
[1]; hippocampus, p=0.0048
  Aβ load lower compared to vehicle Tg controls: 61.9%
[1]; hippocampus, p=0.0047
  reduction in the numerical density of Aβ plaques: 46.3%
[1]; neocortex, p=0.0002
  reduction in the numerical density of Aβ plaques: 60.1%
[1]; one month of administration
  reduction in Aβ load and plaque density versus control Tg animals, in words: over two fold; also recorded: significant reduction
[2]
  areas under the curve, intravenous versus intranasal: no significant differences
  half-life after a single intravenous injection: 1.03 h
[2]; iv, half-life after a single intravenous injection
  half-life: 1.04 ± 0.3 h
Aβ1-42; 10 μmol/L Aβ1-42 with 10 μmol/L peptide
  cell viability, Aβ1-42 incubated with peptide: Much more striking improvement in cell viability
Aβ1-42; Aβ1-42 100 μmol/L, peptide 0.5 μmol/L, six days
  cell viability, Aβ1-42 incubated with peptide without apoE: slightly increased cell viability
[3]; observed two more weeks, wild type C57BL6 mice
  survival and condition: all remained alive and well
[3]; wild type mice
  hematoxylin and eosin histology of brain, heart, liver, gut, spleen, kidneys: did not reveal any pathology
  signs of toxicity (body weight, physical appearance, clinical signs, unprovoked behavior, response to external stimuli): No changes were noted; also recorded: not noticed
[4]
  BBB permeability: BBB permeable
[4]; in vivo
  share found in the capillary depleted brain fraction: More than 90%
